In patent publication US4223041A, “Urea derivatives to treat anxiety and aggressivity” (Labaz, priority 1976, dated 1980):

Experiments:
[1] = traction test (balance, muscular tonus and strength); details: mouse, in vivo; oral, mice, 60 minutes after administration; read-out: ED50 (dose which causes 50% failures in the traction test)
[2] = "Electrically-provoked combat" test (anxiolytic action); assay type: in vivo, mouse; details: mice
Excerpt: Under certain conditions, a pair of mice reacts to an electric stimulus by a series of combats which are provoked by the anxiety felt by the animals as a result of the electric shock. This anxiety is expressed by a combat with the other animal which is rendered responsible. For this reason, the test described hereunder can be considered as a means of evaluating the anxiolytic action of a compound. Two mice which have been previously on a diet consisting only of water are placed together in a cage. They are then submitted to a series of electric impulses of an intensity varying between 40 and 80 volts according to the sensitivity of the animals. The test is first carried out with untreated animals as controls and then with the same animals treated 30 minutes before the test with a dose of the compound to be studied.
Note is taken on the number of combats engaged. The results are expressed in percentage of decrease in the number of combats engaged by the treated animals in comparison with the number of combats registered before treatment.

[3] = rota rod test (neurotoxicity); assay type: in vivo, mouse; details: for % of failures in rota rod test: mice, 30 min after administration
Method: The test used was that known as the rota rod test described by BOISSIER (Therapie 1958 XIII pp. 1074-1118).
This test aims at determining the ability of mice to coordinate their movements by seeing to what extent they can remain on a roller turning at a rate of 4 revolutions per minute for two minutes. The trial was carried out thirty minutes after administration by oral route of the compound to be studied and the percentage of failures was noted.
The value of this test is twofold. Failure on the part of the animals gives a very early indication of the slightest damage to the meuromuscular functions which cannot be discerned by any other means. Secondly, this test serves as an element of comparison for drawing up index figures involving the results obtained with other tests.

[4] = Anxiolytic and antiaggressive properties and separation from sedation (general statements); details: in vivo
[5] = mouse, in vivo, po, 1000 mg/kg
Excerpt: Finally, the hypnotic action of Compound A was studied in mice by means of the test of the posture reflex, the animals being kept under observation during the four hours following the oral administration of the product.

[6] = Action on the cardiovascular and respiratory system; assay type: in vivo, rat
Acute toxicity in mice = details: mouse, in vivo
Method: Acute toxicity was determined on Swiss E.O.P.S. mice, by oral route, using the technique of LITCHFIELD and WILCOXON (J. Pharmacol. Exp. Ther. […], 96, 99).

[7] = Effects on α- and β-adrenergic effects provoked by epinephrine; assay type: in vivo, rat; details: 200 mg/kg i.p.
[8] = Potentiation of barbiturates, tranquillizers and ethanol; assay type: in vivo
Excerpt: Additional pharmacological tests carried out with the preferred compound of the invention have shown that a non-sedative dose of this compound potentiates the hypnotic effect of the barbiturates as well as the sedative effect of tranquillizers such as meprobamate and diazepam.

[9] = Four plates test (anxiolytic action); assay type: in vivo, mouse
Excerpt: This test, which is specific to the anxiolytics, was undertaken with the mouse, thirty minutes after the oral administration of the compound to be studied.
It consists in placing mice in a box with fairly high walls, of which the bottom comprises four square plates. These plates, which all have the same dimensions, are separated from each other by a central axis and are alternately electrified by the positive and negative poles of a source of electric current. There is a space of a few millimeters between adjacent plates.
The mouse placed in this apparatus explores it and thus passes over the different plates in succession. Note is taken of the number of times each animal passes over the plates during one minute. When the current is switched on, the mouse passing over the plates receives an electric shock (80 V), which provokes a gradual decrease in the exploratory movements, and finally brings the animals to a complete stop.
Anxiolytic agents enable the animals to become more or less indifferent to the electric shock.
The percentage of protection against anxiety given by compounds of the invention was calculated by comparing the number of times the control animals passed over the plates when electrified with the number of times the treated animals passed over the electrified plates.

[10] = Influence on acetylcholine-induced hypotension and bradycardia; assay type: in vivo; details: 100 mg/kg i.p., rat
Method: Similarly, at a dose of 100 mg/kg by intraperitoneal route, the preferred compound of the invention has no influence on acetylcholine-induced hypotension and bradycardia in the rat.

Acute toxicity in rats = details: rat, in vivo
[11] = Aggressivity of the isolated mouse (antiaggressive activity); assay type: in vivo
Excerpt: If a male mouse is isolated in a cage for three to four weeks, it will spontaneously attack any other animal of the same species which is placed in the same cage.
Mice wer isolated for the period of time required to render them spontaneously aggressive. Two mice, one rendered aggressive and one in a normal non-aggressive state, were then placed together and note was taken of the number of attacks by the aggressive mouse which occurred over a period of three minutes.
Each batch was composed of five pairs of animals.
The aggressive animals of each batch were then treated by oral route with the compound to be studied which was administered in such a way that the aggressive animals of each batch received a higher dose than those of the preceding batch.
Thirty minutes after administration, the couples were placed together again for a further three minutes and the number of attacks noted.

[12] = spontaneous motoricity in the mouse; assay type: in vivo
Excerpt: This test is described in U.S. Pat. No. 3,929,869.

[13] = comparison at 25%-protection dose of four plates test, 175 mg/kg
[14] = 100 and 200 mg/kg i.p., anaesthetized rat
[15] = 3000 mg/kg oral, 8-day observation, read-out: deaths

CCCC(CCC)(CCC)NC(N)=O [Compound A, 1-(1,1-Di-n-propyl-n-butyl)-urea]
TD50 at 1 h [1]: 600 mg/kg
inhibition in vivo at 58 mg/kg ([2]; Mus musculus, 0.5 h, 58 mg/kg, 30 min before test, read-out: % of decrease in number of combats): 50%
decrease in number of combats obtainable without altering spontaneous motoricity ([2]; without action on spontaneous motoricity): 80%
% of failures in rota rod test ([3]; 175 mg/kg oral): 0%
% of failures in rota rod test ([3]; 600 mg/kg oral): 30%
sedative effect relative to reference products ([3]; at ED25 of four plates test): least sedative
failures in the rota rod test ([3]; at the dose which provokes a 60%-decrease in the number of combats): no failure
Rota rod (% of failures) [3, 13]: 0%
anxiolytic and antiaggressive activity (in words) [4]: most outstanding anxiolytic and antiaggressive properties
loss of the posture reflex [5]: no loss of the posture reflex
cardiac frequency [6, 14]: does not modify
respiratory frequency [6, 14]: does not modify
systemic arterial blood pressure [6, 14]: does not modify
action on the cardiovascular or respiratory system ([6]; rat, in vivo): no appreciable action
mortality at 192 h (Acute toxicity in mice; [15]): 5%
LD50 (Acute toxicity in mice; oral): > 3000 mg/kg
α-adrenergic effects provoked by epinephrine [7]: does not modify
β-adrenergic effects provoked by epinephrine [7]: does not modify
potentiation of the effects of ethanol ([8]; in vivo): slight potentiation
hypnotic effect of the barbiturates ([8]; non-sedative dose): potentiates
sedative effect of tranquillizers such as meprobamate and diazepam ([8]; non-sedative dose): potentiates
inhibition in vivo at 175 mg/kg ([9]; 0.5 h, 175 mg/kg oral, mouse, 30 min after administration, read-out: % of protection against anxiety): 25%
positive result in four plates test without sedative effect ([9]; at ED25 of four plates test): without any sedative effect
influence on acetylcholine-induced bradycardia [10]: no influence
influence on acetylcholine-induced hypotension [10]: no influence
mortality at 192 h (Acute toxicity in rats; [15]): 10%
LD50 at 192 h (Acute toxicity in rats; oral): > 3000 mg/kg
sedative effects at antiaggressive dose ([11]; 100 mg/kg oral): entirely devoid of any sedative effects
ED50 ([11]; 0.5 h, oral, isolated mouse, 30 min after administration, read-out: ED50 (50% fewer attacks)): 142 mg/kg
minimal effective dose ([11]; 0.5 h, oral, isolated mouse, read-out: dose from which antiaggressive action is exerted): 100 mg/kg
decrease in spontaneous motoricity ([12]; 175 mg/kg oral, mouse, 60 minutes, non-significant): 12%
Spontaneous motoricity (% of decrease) [12, 13]: 12%
decrease in spontaneous motoricity at dose giving 80% reduction in combats ([12]; dose producing 80% decrease in the number of combats): without any action on spontaneous motoricity
